# Test results reported in patent US11439657B2, “Cancer stem cell growth inhibitor using miRNA” (CancerStem Tech Inc., priority 2017, dated 2022).
# “Also recorded” adds a separate entry of the source.
# Key:
# [1] = system: cancer stem cell population (ZsGreen+) established from pancreatic cancer cell line Panc-1; assay: Screening of miRNAs: cell count (cell viability) of the cancer stem cell population after transfection; type: cell-based, human; conditions: miRNA 10 pmol/well, lipofectamin 2000, cells counted 48 and 72 hours later, FIG. 4
# Source text: A cancer stem cell line was established by transducing a pancreatic cancer cell line (Panc-1) with an ODC (Ornithine Decarboxylase)-Degron system capable of visualizing low metabolism that is a property of cancer stem cells using a retrovirus vector (FIG. 1a). The base sequence coding the used ODC-Degron is as set forth in SEQ ID NO: 10. Usually, cancer stem cells are so 26s proteasome hypometabolic that they cannot degrade the introduced fluorescently labeled Ornithine Decarboxylase Degron, and thus the fluorescent protein sufficiently accumulates to provide visualization.
# However, even when the ODC-degron system was introduced into the pancreatic cancer cell line Panc-1, only about 0.06% cells emitting fluorescence (green) were obtained in total. With such a small number of cancer stem cells, a series of experiments including drug screening cannot be performed. Accordingly, further enrichment of cancer stem cells provided a cancer stem cell population in which cells having observed fluorescent coloring (i.e., cancer stem cells) accounted for about 81.18% in total (FIG. 1b). The obtained cancer stem cell population was designated as ZsGreen+.
# A cell suspension prepared by suspending the cancer stem cell population (ZsGreen+) in a medium (DMEM medium containing 10% by volume FBS) was seeded in each well of a 24-well plate at a density of 5000 to 10000 cells/well, followed by culture at 37° C. overnight. Thereafter, according to the lipofectamin 2000 protocol, each miRNA was transfected at 10 pmol/well, and 48 hours and 72 hours later, the cells were counted. In addition, tests were also conducted under the same condition on a case where the miRNA was not introduced (untreated group, control), a case where has-miR-34a (SEQ ID NO: 8) was used (positive control) in place of the selected miRNA, and a case where a control miRNA (SEQ ID NO: 9) was used (NC1, negative control) in place of the selected miRNA. In addition, for comparison, the non-cancer stem cell population (ZsGreen−) was used in place of the cancer stem cell population (ZsGreen+) to conduct tests under the same condition.
# The ratio of the number of cells under each condition to the number of control cells into which the miRNA was not introduced (cell viability, %) was determined.
# [2] = system: human large bowel cancer cells (DLD1 line); assay: Antitumor effect on human large bowel cancer cells, cell count after transfection; type: cell-based; conditions: 10 pmol/well, FIG. 11; for antitumor effect: 72 hours, positive control hsa-miR-34a; for proliferation inhibitory effect on large bowel cancer cells: cells counted 72 hours after transfection
# Procedure: (§1) A cell suspension prepared by suspending human pancreatic cancer cells (Bxpc3 line) in D-MEM medium (containing 10% by volume FBS) was seeded in each well of a 24-well plate at 3×10^3 cells/well, followed by culture at 37° C. overnight. Thereafter, according to the lipofectamin 2000 protocol, each miRNA was transfected at 10 pmol/well, and 48 hours later, the cells were counted. In addition, tests were also conducted under the same condition on a case where the miRNA was not introduced (untreated group), a case where hsa-miR-34a (SEQ ID NO: 8) was used (positive control) in place of the miRNA, and a case where a control miRNA (SEQ ID NO: 9) was used (control miRNA, negative control) in place of the selected miRNA.
# (§2) As to hsa-miR-136-5p, hsa-miR-3065-3p, hsa-miR-4727-5p, hsa-miR-378g, hsa-miR-181a-5p, hsa-miR-362-5p and hsa-miR-608, evaluation was performed of the antitumor effect on human large bowel cancer cells. The specific test method is the same as that for Test Example 4 except that human large bowel cancer cells (DLD1 line) were used as cancer cells, and that the cells were counted 72 hours after transfection.
# [3] = system: human esophageal cancer cells (TE11 line); assay: Antitumor effect on human esophageal cancer cells, cell count after transfection; type: cell-based; conditions: 10 pmol/well, FIG. 12; for antitumor effect: 72 hours, positive control hsa-miR-34a; for proliferation inhibitory effect on esophageal cancer cells: cells counted 72 hours after transfection
# Procedure: as §1
# as §2, with “hsa-miR-378g and” for “hsa-miR-378g,”, “hsa-miR-181a-5p,” for “hsa-miR-181a-5p, hsa-miR-362-5p and hsa-miR-608,”, “esophageal” for “large bowel”, “(TE11” for “(DLD1”
# [4] = system: human pancreatic cancer cells (Bxpc3 line); assay: Antitumor effect on human pancreatic cancer cells (1), cell count after transfection; type: cell-based; conditions: 10 pmol/well, FIG. 8; for antitumor effect: 48 hours, positive control hsa-miR-34a; for proliferation inhibitory effect on pancreatic cancer cells: cells counted 48 hours later
# Procedure: as §1
Substance,proliferation inhibitory effect on cancer stem cells (cell viability) [1],antitumor effect [2],proliferation inhibitory effect on large bowel cancer cells [2],antitumor effect [3],proliferation inhibitory effect on esophageal cancer cells [3],antitumor effect [4],proliferation inhibitory effect on pancreatic cancer cells [4]
"hsa-miR-362-5p: human-derived miR-362-5p; base sequence set forth in SEQ ID NO: 6 as mature miRNA (AAUCCUUGGAACCUAGGUGUGAGU; listed as RNA, chemistry not given here; listed as Homo sapiens)",effectively suppress proliferation of cancer stem cells; also recorded: prominent proliferation inhibitory effect,much better antitumor effect than that of hsa-miR-34a; also recorded: particularly remarkable antitumor effect,strong proliferation inhibitory effect,–,–,–,–
"hsa-miR-378g: human-derived miR-378g; base sequence set forth in SEQ ID NO: 4 as mature miRNA (ACUGGGCUUGGAGUCAGAAG; listed as RNA, chemistry not given here; listed as Homo sapiens)",effectively suppress proliferation of cancer stem cells,much better antitumor effect than that of hsa-miR-34a,strong proliferation inhibitory effect,much better antitumor effect than that of hsa-miR-34a,strong proliferation inhibitory effect,much better antitumor effect than that of hsa-miR-34a,strong proliferation inhibitory effect
"has-miR-34a: positive control miRNA (SEQ ID NO: 8), conventionally considered to have the highest therapeutic effect on solid tumor (UGGCAGUGUCUUAGCUGGUUGU; listed as RNA, chemistry not given here; listed as Homo sapiens) [reference compound]",not sufficient,–,–,–,–,–,–
"hsa-miR-4727-5p: human-derived miR-4727-5p; base sequence set forth in SEQ ID NO: 3 as mature miRNA (AUCUGCCAGCUUCCACAGUGG; listed as RNA, chemistry not given here; listed as Homo sapiens)",effectively suppress proliferation of cancer stem cells,much better antitumor effect than that of hsa-miR-34a,strong proliferation inhibitory effect,much better antitumor effect than that of hsa-miR-34a,strong proliferation inhibitory effect,much better antitumor effect than that of hsa-miR-34a,strong proliferation inhibitory effect
"hsa-miR-608: human-derived miR-608; base sequence set forth in SEQ ID NO: 7 as mature miRNA (AGGGGUGGUGUUGGGACAGCUCCGU; listed as RNA, chemistry not given here; listed as Homo sapiens)",effectively suppress proliferation of cancer stem cells; also recorded: prominent proliferation inhibitory effect,much better antitumor effect than that of hsa-miR-34a; also recorded: particularly remarkable antitumor effect,strong proliferation inhibitory effect,–,–,–,–
